No end group written: not given here.

Data on two molecules can be found in patent US5120713A, “Treatment of obesity with an alpha-2-adrenergic agonist and a growth hormone releasing peptide” (Applied Research Systems ARS Holding N.V., priority 1990, dated 1992).

The test system of test [1] is plasma GH. Nature of the test: Plasma GH response (RIA) in prepubertal obese children after clonidine, galanin and/or GHRH. It counts as in vivo, human (obese children). To be noted: for Mean Peak GH Response: Obese patient group, Clo 150 micrograms/m^2 oral at time 0, GHRH 1 microgram/kg i.v. bolus at 60 min, Gal 50 pmol/kg/min infusion 55-120 min. How it is done: Eight prepubertal obese children (boys), aged 10 to 12.4 years, all in good general health and taking no medication, participated in the study with informed consent (parent and child). All had height within normal percentiles for chronological age. Bone age was advanced 6-24 months in all but one patient and weight was above the […] for chronological age in all cases. The children were tested six times at random intervals ranging from 7 to 10 days, each patient serving as their own control. Studies commenced at 0900 h after an overnight fast and bed rest and thirty minutes after the insertion of a nontrombogenic catheter for blood withdrawal in a forearm vein. The study consisted of administering clonidine (Catapresan, Boehringer Ingelheim, Spain) orally at 150 micrograms/m^2 at time 0 followed by administering GHRH (GRF 1-29, Serono, Spain) as an intravenous bolus at 1 microgram/kg at time 60 minutes. The control experiments consisted of administering on separate occasions either clonidine at time 0 or GHRH at time 60 minutes. Blood samples for GH assays (RIA, BioMerieux, France) were taken at 15 minute intervals for two hours. The mean intra-assay coefficient of variation was 5.9, 4.6 and 3.9% at mean GH concentrations of 1.5, 8 and 24 micrograms/L respectively. To avoid inter-assay variations, all samples from a subject were run in the same assay.
(§1) Galanin (Gal) was administered alone, with clonidine (Clo) and with GHRH by infusion as a saline solution at 50 pmol/kg/min through a Millex-GY (0.22 um, Millipore) filter at time 55 to 120 minutes in all experiments. Also, for comparison purposes a similar group of short stature children diagnosed as having constitutional growth delay (CGD) were administered GHRH, galanin plus GHRH, and clonidine plus GHRH (previous study) by the same procedure.

In test [2] the test system is plasma GH. Nature of the test: Plasma GH response in short children with constitutional growth delay (CGD). It counts as in vivo, human (short stature children. As to the method:
as §1

For a further test, the system named is GH. As to conditions: normal children and adolescents; reported (ref 9); cited from earlier work.

For `Clc1cccc(Cl)c1NC1=NCCN1` [Clo, 2-(2,6-dichloroanilino)-2-imidazoline], in the test with plasma GH [1], the “Mean Peak GH Response” value was 2.9 ± 0.8 µg/L. In the test with plasma GH [1] (obese children), the “mean peak (maximal) plasma GH level” value was found to be 2.9 ± 0.8 µg/L and the “plasma GH response (in words)” value is given as “did not produce any significant plasma GH increase”. For the same molecule, the “maximal GH value in one patient” value with plasma GH [1] (obese children, single responding patient, at time 105 min) was found to be 6.5 µg/L.
For the molecule “GHRH: growth hormone releasing hormone, GRF 1-29 (Serono, Spain) (YADAIFTNSYRKVLGQLSARKLLQDIMSR; ends and bridges not checked; UniProt P01286 32-60, looked up, fragment)”, in the test on plasma GH [2] (CGD patient group, same procedure), the “Mean Peak GH Response” value came out at 17.1 ± 4.3 µg/L. The “mean GH peak” value in the test on plasma GH [2] (control group of short children with constitutional growth delay) worked out at 17.1 ± 4.3 µg/L. Besides, in the test with GH, the “GHRH-induced GH response” value is 25.8 ± 5.6 µg/L. Besides, in the test on plasma GH [1], the “Mean Peak GH Response” value came out at 9.6 ± 2 µg/L. Moreover, in the test on plasma GH [1] (obese children), the “mean peak (maximal) plasma GH level” value amounted to 9.6 ± 2 µg/L, the “plasma GH response (in words)” value was “slight but significant increase in plasma GH” and the “time of GH peak after administering GHRH” value turned out to be 45 min.
